Read-outs that look alike come from different tables or passages of the source.
What was measured:
[1] = single oral 25 mg exemestane; for concentration at 24 h: female, human, urine, po, 25 mg, C24 hr (SD), 24-hr urine concentration
UGT2B17 = details: human liver microsomes UGT2B17(*2/*2) versus UGT2B17(*1/*1), P=0.023; cited from earlier work
[2] = postmenopausal volunteers, single oral 25 mg dose; cited from earlier work
[3] = for Plasma concentrations at 24 and 72 hours after exemestane administration: lower limit of quantitation 0.2 (exemestane) and 0.1 ng/ml (17-hydroexemestane); for AUC(0-t): AUC0-8, plasma; for AUC(0-inf): AUC0-∞ (SD); for Cmax: Cmax (SD); for Tmax: Tmax (SD)
[4] = with beta-glucuronidase, UGT2B17 *1/*1 (n = 8)
[5] = with beta-glucuronidase, UGT2B17 *2/*2 (n = 6)
[6] = without beta-glucuronidase, UGT2B17 *1/*1 (n = 8)
[7] = without beta-glucuronidase, UGT2B17 *2/*2 (n = 6)
[8] = plasma, range over subjects, single oral 25 mg exemestane
[9] = female, human, plasma, po, 25 mg, with beta-glucuronidase (total), UGT2B17 *1/*1 (n = 8), single oral 25 mg exemestane
[10] = female, human, plasma, po, 25 mg, with beta-glucuronidase (total), UGT2B17 *2/*2 (n = 6), single oral 25 mg exemestane
[11] = female, human, plasma, po, 25 mg, without beta-glucuronidase (free), UGT2B17 *1/*1 (n = 8), single oral 25 mg exemestane
[12] = female, human, plasma, po, 25 mg, without beta-glucuronidase (free), UGT2B17 *2/*2 (n = 6), single oral 25 mg exemestane

## C=C1C[C@H]2[C@@H]3CC[C@H](O)[C@@]3(C)CC[C@@H]2[C@@]2(C)C=CC(=O)C=C12 [17-hydroexemestane]
[1]; [4]
  C24 hr (SD), 24-hr urine concentration: 2.3 (1.2) ng/ml
[1]; with beta-glucuronidase, UGT2B17 *1/*1 (n = 8), listed as 17-HEXE
  C24 hr (SD), 24-hr urine concentration: 2.3 ± 1.2 ng/mL
[1]; [5]
  C24 hr (SD), 24-hr urine concentration: 0.5 (0.3) ng/ml
[1]; with beta-glucuronidase, UGT2B17 *2/*2 (n = 6), listed as 17-HEXE
  C24 hr (SD), 24-hr urine concentration: 0.5 ± 0.3 ng/mL
[1]; [6]
  C24 hr (SD), 24-hr urine concentration: 0.4 (0.2) ng/ml
[1]; [7]
  C24 hr (SD), 24-hr urine concentration: 0.4 (0.3) ng/ml
UGT2B17
  lower intrinsic clearance (Vmax/Km): 36 fold
[2]
  maximal plasma concentrations (Cmax), range in previous studies: 0.22 to 2.44 ng/mL
  plasma concentrations over time (AUC), range in previous studies: 2.46 to 20.89 ng·h/mL
[3]; UGT2B17 *1/*1 vs *2/*2, plasma
  difference in the AUC of conjugated 17-hydroexemestane between high and poor expressers: ~8 fold
[3]; [8]
  AUC, range in our pharmacokinetic study: 0.7 to 26.9 ng·h/mL
  Cmax, range in our pharmacokinetic study: 0.1 to 2.7 ng/mL
[3]; plasma, with beta-glucuronidase (+BG), UGT2B17*1/*1 carriers, single oral 25 mg exemestane
  AUC0-8: 7.3 ± 2.6 ng·h/mL
[3]; single oral 25 mg exemestane
  Plasma concentrations at 24 and 72 hours after exemestane administration: below the lowest limit of quantification

## C=C1C[C@@H]2[C@H](CC[C@]3(C)C(=O)CC[C@@H]23)[C@@]2(C)C=CC(=O)C=C12 [Exemestane]
[1]; [4]
  concentration at 24 h: 1.7 ± 1 ng/mL
  C24 hr (SD), 24-hr urine concentration: 1.7 (1.0) ng/ml
[1]; [5]
  concentration at 24 h: 2.1 ± 1.6 ng/mL
  C24 hr (SD), 24-hr urine concentration: 2.1 (1.6) ng/ml
[1]; [6]
  concentration at 24 h: 1.9 ng/mL
[1]; [7]
  concentration at 24 h: 2.5 ng/mL
[2]
  maximal plasma concentrations (Cmax), range in previous studies: 3.0 to 16.1 ng/mL
  plasma concentrations over time (AUC), range in previous studies: 25.6 to 98.1 ng·h/mL
[3]; female, human, plasma, po, 25 mg
  AUC: 9.2 to 40.6 ng·h/mL
[3]; female, human, plasma, po, 25 mg, with beta-glucuronidase (+BG), UGT2B17*1/*1 carriers, single oral 25 mg exemestane
  AUC(0-t): 16.2 ± 3.5 ng·h/mL
[3]; female, human, plasma, po, 25 mg, with beta-glucuronidase (+BG), UGT2B17*2/*2 carriers, single oral 25 mg exemestane
  AUC(0-t): 15.5 ± 4.2 ng·h/mL
[3]; [9]
  AUC(0-inf): 19.8 ng·h/mL
  Cmax: 4.4 ng/mL
  Tmax: 3.1 h
[3]; [10]
  AUC(0-inf): 19 ng·h/mL
  Cmax: 5.2 ng/mL
  Tmax: 1.9 h
[3]; [11]
  AUC(0-inf): 22.7 ng·h/mL
  Cmax: 5.6 ng/mL
  Tmax: 3.1 h
[3]; [12]
  AUC(0-inf): 19.7 ng·h/mL
  Cmax: 5.3 ng/mL
  Tmax: 1.7 h
[3]; single oral 25 mg exemestane
  Plasma concentrations at 24 and 72 hours after exemestane administration: below the lowest limit of quantification

Source: paper PMC4882280 (Journal of clinical pharmacology, 2015)
